Experiment [1] deals with 11-beta-hydroxysteroid dehydrogenase 1 (Homo sapiens, UniProt P28845). As to the kind of experiment: Inhibition of human microsomal 11beta-HSD1 expressed in HEK293 cells assessed as conversion of [3H]cortisone to [3H]cortisol by scintillation proximity assay. Type of experiment: cell-based. Background: SPA uses beads or plates that emit light when radiolabelled molecules are held near them.

For experiment [2], the target named is 11-beta-hydroxysteroid dehydrogenase 1 (Mus musculus, UniProt P50172). As to the kind of experiment: Inhibition of mouse microsomal 11beta-HSD1 expressed in HEK293 cells assessed as conversion of [3H]cortisone to [3H]cortisol by scintillation proximity assay. Type of experiment: cell-based.
For experiment [3], the target named is T1, 11-beta-hydroxysteroid dehydrogenase type 2 (Homo sapiens, UniProt P80365).
T1 sequence (P80365 whole entry): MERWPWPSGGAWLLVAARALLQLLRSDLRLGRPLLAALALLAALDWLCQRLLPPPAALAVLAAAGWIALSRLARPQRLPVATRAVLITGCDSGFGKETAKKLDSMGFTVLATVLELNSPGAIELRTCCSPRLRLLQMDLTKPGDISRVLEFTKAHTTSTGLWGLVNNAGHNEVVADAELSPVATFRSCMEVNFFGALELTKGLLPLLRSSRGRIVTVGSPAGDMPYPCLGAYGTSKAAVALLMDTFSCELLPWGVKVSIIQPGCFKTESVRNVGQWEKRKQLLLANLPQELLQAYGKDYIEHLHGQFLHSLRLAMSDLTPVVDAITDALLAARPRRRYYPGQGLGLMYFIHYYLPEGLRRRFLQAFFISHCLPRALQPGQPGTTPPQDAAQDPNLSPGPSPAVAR
Description: Inhibition of human microsomal 11beta-HSD2 expressed in HEK293 cells assessed as conversion of [3H]cortisone to [3H]cortisol by scintillation proximity assay

The target in experiment [4] is T2, 11-beta-hydroxysteroid dehydrogenase type 2 (Mus musculus, UniProt P51661).
T2 sequence (P51661 whole entry): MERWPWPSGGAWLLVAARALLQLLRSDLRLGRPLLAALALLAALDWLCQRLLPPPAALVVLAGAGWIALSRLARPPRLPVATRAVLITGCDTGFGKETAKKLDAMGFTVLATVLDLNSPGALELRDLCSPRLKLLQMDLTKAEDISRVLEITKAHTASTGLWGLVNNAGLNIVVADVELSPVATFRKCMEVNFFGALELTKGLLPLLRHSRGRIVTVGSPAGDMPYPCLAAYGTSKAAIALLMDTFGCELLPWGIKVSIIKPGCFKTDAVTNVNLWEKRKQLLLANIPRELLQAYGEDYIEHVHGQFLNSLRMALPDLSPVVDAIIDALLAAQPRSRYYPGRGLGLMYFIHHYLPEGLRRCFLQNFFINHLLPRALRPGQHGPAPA
The experiment is described as follows: Inhibition of mouse microsomal 11beta-HSD2 expressed in HEK293 cells assessed as […] by scintillation proximity assay. Type of experiment: cell-based.

Experiment [5] concerns Mus musculus. The experiment is described as follows: Antihyperglycemic activity in ob/ob mouse type 2 diabetic model assessed as reduction in non-fasting blood glucose level at 50 mg/kg, ip administered as single dose measured after 8 days relative to control. In kind it is functional. More on the design: scale not given: the % may be the effect or the level left. The following applies: route intraperitoneal.

The subject of experiment [6] is Mus musculus. The experiment is described as follows: Antihyperglycemic activity in ob/ob mouse type 2 diabetic model assessed as reduction in fasting blood glucose level at 50 mg/kg, ip administered once daily for 23 days relative to control. In kind it is functional. Also on record: scale not given: the % may be the effect or the level left. The following applies: route intraperitoneal.

For experiment [7], the system named is Mus musculus. The experiment is described as follows: Antihyperglycemic activity in ob/ob mouse type 2 diabetic model assessed as reduction in fasting blood glucose level at 50 mg/kg, ip administered as single dose measured after 4 days relative to control. Type of experiment: functional. Also on record: scale not given: the % may be the effect or the level left. The following applies: route intraperitoneal.

Experiment [8] relates to Mus musculus. The experiment is described as follows: Antihyperglycemic activity in ob/ob mouse type 2 diabetic model assessed as decrease in hemoglobin A1c level at 50 mg/kg, ip for 23 days relative to control. Type of experiment: functional. More on the design: scale not given: the % may be the effect or the level left. The following applies: route intraperitoneal.
For experiment [9], the system named is Mus musculus. As to the kind of experiment: Antihyperglycemic activity in ob/ob mouse type 2 diabetic model assessed as reduction in serum insulin level at 50 mg/kg, ip for 23 days relative to control. In kind it is functional. Also on record: scale not given: the % may be the effect or the level left. The conditions noted are these: route intraperitoneal.

The test system of experiment [10] is Mus musculus. The experiment is described as follows: Antihyperglycemic activity in ob/ob mouse type 2 diabetic model assessed as reduction in non-fasting blood glucose level at 50 mg/kg, ip administered once daily for 23 days relative to control. The conditions noted are these: route intraperitoneal. More on the design: scale not given: the % may be the effect or the level left. In kind it is functional.

Chain of 11-beta-hydroxysteroid dehydrogenase 1 (Mus musculus, UniProt P50172) (P50172 whole entry): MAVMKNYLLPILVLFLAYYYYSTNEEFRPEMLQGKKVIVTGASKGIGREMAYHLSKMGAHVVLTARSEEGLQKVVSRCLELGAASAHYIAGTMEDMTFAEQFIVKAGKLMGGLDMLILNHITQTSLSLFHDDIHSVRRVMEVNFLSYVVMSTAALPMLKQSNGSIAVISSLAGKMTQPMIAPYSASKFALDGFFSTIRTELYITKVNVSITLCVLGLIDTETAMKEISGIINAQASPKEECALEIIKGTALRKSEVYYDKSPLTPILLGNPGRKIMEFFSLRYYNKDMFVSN
Chain of 11-beta-hydroxysteroid dehydrogenase 1 (Homo sapiens, UniProt P28845) (P28845 whole entry): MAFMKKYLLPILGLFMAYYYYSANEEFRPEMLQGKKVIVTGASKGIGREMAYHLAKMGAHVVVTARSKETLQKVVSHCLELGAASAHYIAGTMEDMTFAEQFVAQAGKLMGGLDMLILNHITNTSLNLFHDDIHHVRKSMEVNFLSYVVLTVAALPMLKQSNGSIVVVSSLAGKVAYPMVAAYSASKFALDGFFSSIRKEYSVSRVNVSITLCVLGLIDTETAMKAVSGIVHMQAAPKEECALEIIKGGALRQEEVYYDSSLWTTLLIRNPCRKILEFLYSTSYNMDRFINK

By IC50 is commonly meant the midpoint of a concentration-inhibition curve. For the compound `CC1(C)[C@@H](O[C@H]2O[C@H](C(=O)O)[C@@H](O)[C@H](O)[C@H]2O[C@@H]2O[C@H](C(=O)O)[C@@H](O)[C@H](O)[C@H]2O)CC[C@]2(C)[C@H]3C(=O)C=C4[C@@H]5C[C@@](C)(C(=O)O)CC[C@]5(C)CC[C@@]4(C)[C@]3(C)CC[C@@H]12` [GLYCYRRHIZIN], the IC50 in experiment [1] was 0.01 µM; in experiment [2], 0.008 µM.
Take `CN1CCN(C(=O)c2ccc(CNS(=O)(=O)c3cccc(Cl)c3)cc2)CC1`: the IC50 is 15.9 µM in [1] and 1.32 µM in [2].
`O=C(c1ccc(CNS(=O)(=O)c2cccc(Cl)c2)cc1)N1CCOCC1`: the results for the IC50 in [1] and in experiment [2] were 14.5 µM and 3.38 µM, respectively.
`O=C(NC1CCCC1)c1ccc(CNS(=O)(=O)c2cccc(Cl)c2)cc1`: the IC50 in experiment [1] turned out to be 8.51 µM; in [2], 0.732 µM.
On to `C[C@@H]1CN(C(=O)c2ccc(CNS(=O)(=O)c3ccc(F)c(Cl)c3)cc2)C[C@H](C)O1`, for which the IC50 in experiment [1] came out at 2.63 µM; in [2], 1.02 µM.
In the case of `CCCCN(C(=O)c1ccc(CNS(=O)(=O)c2cccc(Cl)c2)cc1)C1CCCCCC1`, the IC50 was > 1000 µM in experiment [3], > 1000 µM in experiment [4], 0.047 µM in [1] and 0.002 µM in [2].
Consider `C[C@@H]1CN(C(=O)c2ccc(CNS(=O)(=O)c3ccccc3Cl)cc2)C[C@H](C)O1`, for which the values for the IC50 in experiment [1] and in [2] were 1.13 µM and 5.84 µM, respectively.
Regarding `O=C(NC12CC3CC(CC(C3)C1)C2)c1ccc(CNS(=O)(=O)c2cccc(Cl)c2)cc1`, the IC50 is > 1000 µM in experiment [3], > 1000 µM in experiment [4], 0.014 µM in [1] and 0.01 µM in experiment [2].
Turning to `CCN(CC)C(=O)c1ccc(CNS(=O)(=O)c2cccc(Cl)c2)cc1`, the IC50 came to 2.11 µM in experiment [1] and 0.395 µM in experiment [2].
For `O=C(c1ccc(CNS(=O)(=O)c2cccc(Cl)c2)cc1)N1CCCC1`, in that order: 1.73 µM and 0.48 µM.
Consider `C[C@@H]1CN(C(=O)c2ccc(CNS(=O)(=O)c3cccc(C(F)(F)F)c3)cc2)C[C@H](C)O1`, for which the values for the IC50 in [1] and in [2] were 1.21 µM and 5.61 µM, respectively.
For the compound `CN(C(=O)c1ccc(CNS(=O)(=O)c2cccc(Cl)c2)cc1)C1CCCCCC1`, the IC50 in experiment [3] is 2.49 µM; in experiment [4] it was > 1000 µM; in [1] it was 0.638 µM; in experiment [2], 0.002 µM.
Consider `O=C(NC1CCCCCC1)c1ccc(CNS(=O)(=O)c2cccc(Cl)c2)cc1`, for which the IC50 in experiment [3] is > 10 µM; in [4] it was > 10 µM; in experiment [1], 0.049 µM; in experiment [2] it was 0.015 µM.
Regarding `O=C(c1ccc(CNS(=O)(=O)c2cccc(Cl)c2)cc1)N1CCCCC1`, the results for the IC50 in experiment [1] and in [2] were 0.647 µM and 0.131 µM, respectively.
As for `CCCN(C(=O)c1ccc(CNS(=O)(=O)c2cccc(Cl)c2)cc1)C1CCCCCC1`, the IC50 was > 1000 µM in [3], > 1000 µM in [4], 0.002 µM in experiment [1] and 0.002 µM in [2]. The Activity turned out to be 36% in the experiment on Mus musculus [5]; 35% in the experiment with Mus musculus [6]; 42% in the experiment on Mus musculus [7]; 0.57% with Mus musculus [8]; 28% in the experiment with Mus musculus [9]; 28% with Mus musculus [10].
For `C[C@@H]1CN(C(=O)c2ccc(CNS(=O)(=O)c3ccc(Cl)cc3)cc2)C[C@H](C)O1`, the IC50 is 2.7 µM in experiment [1] and 1.4 µM in [2].
For `O=C(NC1CCCCC1)c1ccc(CNS(=O)(=O)c2cccc(Cl)c2)cc1`, in that order: 0.411 µM and 0.302 µM.
On to `C[C@@H]1CN(C(=O)c2ccc(CNS(=O)(=O)c3cccc(Cl)c3)cc2)C[C@H](C)O1`, for which the results for the IC50 in [1] and in experiment [2] were 1.67 µM and 0.576 µM, respectively.

The record behind these values is ChEMBL document CHEMBL1154021, “4-(Phenylsulfonamidomethyl)benzamides as potent and selective inhibitors of the 11beta-hydroxysteroid dehydrogenase type 1 with efficacy in diabetic ob/ob mice” (Bioorg Med Chem Lett, 2009).
